Results from ChEMBL document CHEMBL5096219, “Design, synthesis and biological evaluation of novel pyrazinone derivatives as PI3K/HDAC dual inhibitors” (Bioorg Med Chem, 2022).

Key:
MV4-11 [1] = assay: Inhibition of PI3K in human MV4-11 cells assessed as downregulation of phosphorylated AKT expression incubated for 24 hrs by western blot analysis; format: cell-based; settings: dose 0.05-0.45 µM, DDE = dose-dependent effect
MV4-11 [2] = assay: Induction of cell cycle arrest in human MV4-11 cells assessed as accumulation of cells at G2/M phase at 1350 nM incubated for 48 hrs by […]PI staining based flow cytometry (reference value: 11.5%); format: functional
MV4-11 [3] = assay: Induction of apoptosis in human MV4-11 cells assessed as total apoptotic cells at 150 nM incubated for 48 hrs by Annexin V-FITC/PI staining based flow cytometry (reference value: 2.99%); format: functional
MV4-11 [4] = assay: Induction of cell cycle arrest in human MV4-11 cells assessed as accumulation of cells at G0/G1 phase at 450 nM incubated for 48 hrs by […]PI staining based flow cytometry (reference value: 33.1%); format: functional
MV4-11 [5] = assay: Induction of apoptosis in human MV4-11 cells assessed as total apoptotic cells at 50 nM incubated for 48 hrs by Annexin V-FITC/PI staining based flow cytometry (reference value: 2.99%); format: functional
MV4-11 [6] = assay: Induction of cell cycle arrest in human MV4-11 cells assessed as accumulation of cells at G2/M phase at 450 nM incubated for 48 hrs by […]PI staining based flow cytometry (reference value: 11.5%); format: functional
A549 = assay: Antiproliferative activity against human A549 cells assessed as inhibition of cell proliferation incubated for 72 hrs by MTT assay; format: functional, cell-based; settings: A549, 72 h
K562 = assay: cells; format: functional, cell-based; settings: Homo sapiens, K562, 72 h
Description: Antiproliferative activity against human K562 cells assessed as inhibition of cell proliferation incubated for 72 hrs by CCK8 assay

MV4-11 [7] = assay: Induction of cell cycle arrest in human MV4-11 cells assessed as accumulation of cells at G0/G1 phase at 1350 nM incubated for 48 hrs by […]PI staining based flow cytometry (reference value: 33.1%); format: functional
MV4-11 [8] = assay: Induction of apoptosis in human MV4-11 cells assessed as early apoptotic cells at 50 nM incubated for 48 hrs by Annexin V-FITC/PI staining based flow cytometry (reference value: 0.95%); format: functional
HGC-27 = assay: Antiproliferative activity against human HGC-27 cells assessed as inhibition of cell proliferation incubated for 72 hrs by MTT assay; format: functional, cell-based; settings: HGC-27, 72 h
MV4-11 [9] = assay: Induction of apoptosis in human MV4-11 cells assessed as viable cells at 150 nM incubated for 48 hrs by Annexin V-FITC/PI staining based flow cytometry (reference value: 96.5%); format: functional; settings: read-out: Activity
[10] = target: T1, Protein deacetylase HDAC6 (Homo sapiens) (UniProt Q9UBN7); settings: dose 100.0 nM
T1 sequence (whole entry): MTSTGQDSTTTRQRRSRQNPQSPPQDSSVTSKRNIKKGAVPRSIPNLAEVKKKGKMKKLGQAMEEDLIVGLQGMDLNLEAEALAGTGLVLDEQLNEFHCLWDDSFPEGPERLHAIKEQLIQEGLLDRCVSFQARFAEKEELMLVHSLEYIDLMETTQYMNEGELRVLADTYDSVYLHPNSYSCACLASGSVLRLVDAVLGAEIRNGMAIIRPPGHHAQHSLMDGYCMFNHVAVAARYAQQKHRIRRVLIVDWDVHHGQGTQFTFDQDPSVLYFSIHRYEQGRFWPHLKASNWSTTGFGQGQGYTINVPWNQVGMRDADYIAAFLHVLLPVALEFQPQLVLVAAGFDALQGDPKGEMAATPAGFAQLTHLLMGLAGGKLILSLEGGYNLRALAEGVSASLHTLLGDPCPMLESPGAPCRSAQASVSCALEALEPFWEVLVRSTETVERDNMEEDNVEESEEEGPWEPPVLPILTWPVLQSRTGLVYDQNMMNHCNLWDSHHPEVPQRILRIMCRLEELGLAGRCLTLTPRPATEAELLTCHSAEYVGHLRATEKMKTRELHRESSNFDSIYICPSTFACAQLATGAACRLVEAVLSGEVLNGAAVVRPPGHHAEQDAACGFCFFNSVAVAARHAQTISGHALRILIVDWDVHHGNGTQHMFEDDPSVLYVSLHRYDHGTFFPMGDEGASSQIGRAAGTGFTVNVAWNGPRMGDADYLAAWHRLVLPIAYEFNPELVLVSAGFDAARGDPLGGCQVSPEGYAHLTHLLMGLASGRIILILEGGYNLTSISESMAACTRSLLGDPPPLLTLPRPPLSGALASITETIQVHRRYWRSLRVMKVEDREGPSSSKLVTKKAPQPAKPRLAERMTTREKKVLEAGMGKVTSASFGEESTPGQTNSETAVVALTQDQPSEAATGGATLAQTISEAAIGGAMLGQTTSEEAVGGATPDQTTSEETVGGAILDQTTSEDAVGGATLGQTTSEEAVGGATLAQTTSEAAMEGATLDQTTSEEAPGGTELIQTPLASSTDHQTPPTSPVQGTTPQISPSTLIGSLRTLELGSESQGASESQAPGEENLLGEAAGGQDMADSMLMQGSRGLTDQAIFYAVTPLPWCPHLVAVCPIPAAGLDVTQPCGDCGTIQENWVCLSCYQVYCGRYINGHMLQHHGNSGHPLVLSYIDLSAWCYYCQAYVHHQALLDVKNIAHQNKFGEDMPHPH
Description: Inhibition of HDAC6 (unknown origin) at 100 nM

MV4-11 [11] = assay: Induction of apoptosis in human MV4-11 cells assessed as necrotic cells at 50 nM incubated for 48 hrs by Annexin V-FITC/PI staining based flow cytometry (reference value: 0.51%); format: functional
MV4-11 [12] = assay: Induction of cell cycle arrest in human MV4-11 cells assessed as accumulation of cells at S phase at 150 nM incubated for 48 hrs by […]PI staining based flow cytometry (reference value: 45.5%); format: functional
MV4-11 [13] = assay: Induction of apoptosis in human MV4-11 cells assessed as early apoptotic cells at 150 nM incubated for 48 hrs by Annexin V-FITC/PI staining based flow cytometry (reference value: 0.95%); format: functional
MV4-11 [14] = assay: Induction of apoptosis in human MV4-11 cells assessed as late apoptotic cells at 50 nM incubated for 48 hrs by Annexin V-FITC/PI staining based flow cytometry (reference value: 2.04%); format: functional
MV4-11 [15] = assay: Induction of apoptosis in human MV4-11 cells assessed as viable cells at 50 nM incubated for 48 hrs by Annexin V-FITC/PI staining based flow cytometry (reference value: 96.5%); format: functional; settings: read-out: Activity
MV4-11 [16] = assay: Induction of cell cycle arrest in human MV4-11 cells assessed as accumulation of cells at G2/M phase at 50 nM incubated for 48 hrs by […]PI staining based flow cytometry (reference value: 11.5%); format: functional
MV4-11 [17] = assay: Induction of cell cycle arrest in human MV4-11 cells assessed as accumulation of cells at S phase at 450 nM incubated for 48 hrs by […]PI staining based flow cytometry (reference value: 45.5%); format: functional
MV4-11 [18] = assay: Induction of apoptosis in human MV4-11 cells assessed as necrotic cells at 450 nM incubated for 48 hrs by Annexin V-FITC/PI staining based flow cytometry (reference value: 0.51%); format: functional

- IC50 (A549): 11000 nM
- IC50 (K562): 120 nM
- inhibition [10]: 90%
Structure (SMILES): O=C(NO)c1ccc(Cn2cc(-c3cccc4[nH]ncc34)nc(N3CCOCC3)c2=O)cc1
- inhibition (MV4-11 [1]): Dde
- Activity (MV4-11 [2]): 51.8%
- Activity (MV4-11 [3]): 16.94%
- Activity (MV4-11 [4]): 15.1%
- Activity (MV4-11 [5]): 7.2%
- Activity (MV4-11 [6]): 38.3%
- Activity (MV4-11 [7]): 15.2%
- Activity (MV4-11 [8]): 3.53%
- IC50 (HGC-27): 880 nM
- viability at 0.15 µM (MV4-11 [9]): 79.6%
- Activity (MV4-11 [11]): 0.34%
- Activity (MV4-11 [12]): 31%
- Activity (MV4-11 [13]): 2.44%
- Activity (MV4-11 [14]): 3.67%
- viability at 0.05 µM (MV4-11 [15]): 92.5%
- Activity (MV4-11 [16]): 24.6%
- Activity (MV4-11 [17]): 34.9%
- Activity (MV4-11 [18]): 0.69%
